{"source": "patent US8987456B2", "about": "“3-pyridyl carboxamide-containing spleen tyrosine kinase (SYK) inhibitors” (Merck Sharp & Dohme Corp., priority 2011, dated 2015)", "key": {"[1]": {"biological_target": "T1, recombinant human GST-SYK (Homo sapiens, UniProt P43405)", "T1 construct": "purchased Carna Biosciences 08-176", "assay": "Homogeneous Time-Resolved Fluorescence (HTRF) assay for the recombinant human Syk enzyme", "assay_type": "biochemical", "settings": "5 pM GST-SYK, 25 μM ATP, 10-dose titration", "protocol": "Biological Assay Homogeneous Time-Resolved Fluorescence (HTRF) Assay for the Recombinant Human Syk Enzyme\nA recombinant GST-hSYK fusion protein was used to measure potency of compounds to inhibit human Syk activity. […] Final volume of the reaction was 10 μL. Phosphorylation of the peptide was allowed to proceed for 45′ at room temperature. To quench the reaction and detect the phosphorylated product, 2 nM of a Europium-anti-phosphotyrosine antibody (Perkin Elmer #AD0161) and 70 nM SA-APC (Perkin-Elmer #CR130-100) were added together in 15 mM Tris pH 7.5, 40 mM EDTA, 0.01% tween 20. Final volume of the quenching solution was 10 μL. The resulting HTRF signal was measured after 30 minutes on an EnVision (Perkin-Elmer) reader using a time-resolved fluorescence protocol."}, "[2]": {"system": "allergic rhinitis", "settings": "dosed intranasally, phase I/II study; cited from earlier work"}, "[3]": {"system": "allergic rhinitis", "settings": "phase II clinical trial; cited from earlier work"}}, "note": "Like-named read-outs stand apart in the source and are kept apart here."}
{"compound": "Cc1nc(Nc2cc(N[C@@H]3CCCC[C@@H]3N)ncc2C(N)=O)ccc1F", "note": "[Example 1.7, 6-{[(1R,2S)-2-aminocyclohexyl]amino}-4-[(5-fluoro-6-methylpyridin-2-yl)amino]pyridine-3-carboxamide]", "values": [{"measurement": "IC50", "setting": "[1]; read-out: rhSYK Activity", "value": "0.01 to 0.1", "unit": "µM"}]}
{"compound": "NC(=O)c1cnc(N[C@@H]2CCCC[C@@H]2N)cc1Nc1ccc2ccccc2n1", "note": "[Example 1.6, 6-{[(1R,2S)-2-aminocyclohexyl]amino}-4-(quinolin-2-ylamino)pyridine-3-carboxamide]", "values": [{"measurement": "IC50", "setting": "[1]; read-out: IC50", "value": 0.0058, "unit": "µM"}, {"measurement": "IC50", "setting": "[1]; read-out: rhSYK Activity", "value": "< 0.01", "unit": "µM"}]}
{"compound": "Cc1cc(C)nc(Nc2cc(NC[C@H](C)N)ncc2C(N)=O)c1", "note": "[Example 3.1, 6-{[(2S)-2-aminopropyl]amino}-4-[(4,6-dimethylpyridin-2-yl)amino]pyridine-3-carboxamide]", "values": [{"measurement": "IC50", "setting": "[1]; read-out: rhSYK Activity", "value": "0.01 to 0.1", "unit": "µM"}]}
{"compound": "Cc1cc(C)nc(Nc2cc(N[C@@H]3[C@H](N)CCCC3(F)F)ncc2C(N)=O)c1", "note": "[Example 3.2, 6-{[(1R,6R)-6-amino-2,2-difluorocyclohexyl]amino}-4-[(4,6-dimethylpyridin-2-yl)amino]pyridine-3-carboxamide]", "values": [{"measurement": "IC50", "setting": "[1]; read-out: IC50", "value": 0.51, "unit": "µM"}, {"measurement": "IC50", "setting": "[1]; read-out: rhSYK Activity", "value": "0.1 to 1", "unit": "µM"}]}
{"compound": "Cc1cc(C)nc(Nc2cc(NCC3(N)CCOCC3)ncc2C(N)=O)c1", "note": "[Example 2.5]", "values": [{"measurement": "IC50", "setting": "[1]; read-out: rhSYK Activity", "value": "1 to 10", "unit": "µM"}]}
{"compound": "C[C@H](N)CNc1cc(Nc2cc(-c3cnn(C)c3)cc(-c3cnn(C)c3)n2)c(C(N)=O)cn1", "note": "[Example 1.8, 6-{[(2S)-2-aminopropyl]amino}-4-{[4,6-bis(1-methyl-1H-pyrazol-4-yl)pyridin-2-yl]amino}pyridine-3-carboxamide]", "values": [{"measurement": "IC50", "setting": "[1]; read-out: rhSYK Activity", "value": "< 0.01", "unit": "µM"}]}
{"compound": "Cc1nc(Nc2cc(NC[C@H](C)N)ncc2C(N)=O)ccc1-c1cnn(C)c1", "note": "[Example 1.9, 6-{[(2S)-2-aminopropyl]amino}-4-{[6-methyl-5-(1-methyl-1H-pyrazol-4-yl)pyridin-2-yl]amino}pyridine-3-carboxamide]", "values": [{"measurement": "IC50", "setting": "[1]; read-out: rhSYK Activity", "value": "< 0.01", "unit": "µM"}]}
{"compound": "Cc1cccc(Nc2cc(N[C@@H]3CCCC[C@@H]3N)ncc2C(N)=O)n1", "note": "[Example 1.2, 6-{[(1R,2S)-2-aminocyclohexyl]amino}-4-[(6-methylpyridin-2-yl)amino]pyridine-3-carboxamide]", "values": [{"measurement": "IC50", "setting": "[1]; read-out: IC50", "value": 0.0045, "unit": "µM"}, {"measurement": "IC50", "setting": "[1]; read-out: rhSYK Activity", "value": "0.01 to 0.1", "unit": "µM"}]}
{"compound": "Cc1cc(C)nc(Nc2cc(NCC(N)C(F)(F)F)ncc2C(N)=O)c1", "note": "(racemic) [Example 2.3, 6-[(2-amino-3,3,3-trifluoropropyl)amino]-4-[(4,6-dimethylpyridin-2-yl)amino]pyridine-3-carboxamide]", "values": [{"measurement": "IC50", "setting": "[1]; read-out: IC50", "value": 3.5, "unit": "µM"}, {"measurement": "IC50", "setting": "[1]; read-out: rhSYK Activity", "value": "1 to 10", "unit": "µM"}]}
{"compound": "Cc1cc(C)nc(Nc2cc(NCC3(N)CCOC3)ncc2C(N)=O)c1", "note": "(racemic) [Example 2.6, 6-{[(3-aminotetrahydrofuran-3-yl)methyl]amino}-4-[(4,6-dimethylpyridin-2-yl)amino]pyridine-3-carboxamide]", "values": [{"measurement": "IC50", "setting": "[1]; read-out: rhSYK Activity", "value": "1 to 10", "unit": "µM"}]}
{"compound": "COC[C@H](N)CNc1cc(Nc2cccc(C)n2)c(C(N)=O)cn1", "note": "[Example 2.7, 6-{[(2R)-2-amino-3-methoxypropyl]amino}-4-[(6-methylpyridin-2-yl)amino]pyridine-3-carboxamide]", "values": [{"measurement": "IC50", "setting": "[1]; read-out: rhSYK Activity", "value": "0.1 to 1", "unit": "µM"}]}
{"compound": "CCC(N)CNc1cc(Nc2cccc(C)n2)c(C(N)=O)cn1", "note": "(centres unmarked) [Example 2.1, 6-[(2-aminobutyl)amino]-4-[(6-methylpyridin-2-yl)amino]pyridine-3-carboxamide]", "values": [{"measurement": "IC50", "setting": "[1]; read-out: rhSYK Activity", "value": "0.1 to 1", "unit": "µM"}]}
{"compound": "Cc1cccc(Nc2cc(NCCN)ncc2C(N)=O)n1", "note": "[Example 1.3, 6-[(2-aminoethyl)amino]-4-[(6-methylpyridin-2-yl)amino]pyridine-3-carboxamide]", "values": [{"measurement": "IC50", "setting": "[1]; read-out: IC50", "value": 0.17, "unit": "µM"}, {"measurement": "IC50", "setting": "[1]; read-out: rhSYK Activity", "value": "0.1 to 1", "unit": "µM"}]}
{"compound": "Cc1nc(Nc2cc(NCCN)ncc2C(N)=O)ccc1Br", "note": "[Example 2.13, 6-[(2-aminoethyl)amino]-4-[(5-bromo-6-methylpyridin-2-yl)amino]pyridine-3-carboxamide]", "values": [{"measurement": "IC50", "setting": "[1]; read-out: IC50", "value": 0.066, "unit": "µM"}, {"measurement": "IC50", "setting": "[1]; read-out: rhSYK Activity", "value": "0.01 to 0.1", "unit": "µM"}]}
{"compound": "CCC(C)(N)CNc1cc(Nc2cccc(C)n2)c(C(N)=O)cn1", "note": "(racemic) [Example 2.9, 6-[(2-amino-2-methylbutyl)amino]-4-[(6-methylpyridin-2-yl)amino]pyridine-3-carboxamide]", "values": [{"measurement": "IC50", "setting": "[1]; read-out: rhSYK Activity", "value": "0.1 to 1", "unit": "µM"}]}
{"compound": "NC(=O)c1cnc(N[C@@H]2CCCC[C@@H]2N)cc1Nc1cccc(C(F)(F)F)n1", "note": "[Example 1.1, 6-{[(1R,2S)-2-aminocyclohexyl]amino}-4-{[6-(trifluoromethyl)pyridin-2-yl]amino}pyridine-3-carboxamide]", "values": [{"measurement": "IC50", "setting": "[1]; read-out: IC50", "value": 0.0035, "unit": "µM"}, {"measurement": "IC50", "setting": "[1]; read-out: rhSYK Activity", "value": "< 0.01", "unit": "µM"}]}
{"compound": "NC(=O)c1cnc(N[C@@H]2CCCC[C@@H]2N)cc1Nc1cccc(-n2nccn2)n1", "note": "[Example 1.4, 6-{[(1R,2S)-2-aminocyclohexyl]amino}-4-{[6-(2H-1,2,3-triazol-2-yl)pyridin-2-yl]amino}pyridine-3-carboxamide]", "values": [{"measurement": "IC50", "setting": "[1]; read-out: rhSYK Activity", "value": "< 0.01", "unit": "µM"}]}
{"compound": "Cc1cc(C)nc(Nc2cc(NCCN)ncc2C(N)=O)c1", "note": "[Example 2.2, 6-[(2-aminoethyl)amino]-4-[(4,6-dimethylpyridin-2-yl)amino]pyridine-3-carboxamide]", "values": [{"measurement": "IC50", "setting": "[1]; read-out: rhSYK Activity", "value": "0.01 to 0.1", "unit": "µM"}]}
{"compound": "Cc1cc(C)nc(Nc2cc(N[C@@H]3COC[C@H]3N)ncc2C(N)=O)c1", "note": "(relative stereo) [Example 2.4, rel-6-{[(3S,4S)-4-aminotetrahydrofuran-3-yl]amino}-4-[(4,6-dimethylpyridin-2-yl)amino]pyridine-3-carboxamide]", "values": [{"measurement": "IC50", "setting": "[1]; read-out: rhSYK Activity", "value": "1 to 10", "unit": "µM"}]}
{"compound": "Cc1cc(C)nc(Nc2cc(N[C@H]3[C@@H](N)CCCC3(F)F)ncc2C(N)=O)c1", "note": "[Example 3.3, 6-{[(1S,6S)-6-amino-2,2-difluorocyclohexyl]amino}-4-[(4,6-dimethylpyridin-2-yl)amino]pyridine-3-carboxamide]", "values": [{"measurement": "IC50", "setting": "[1]; read-out: rhSYK Activity", "value": "0.01 to 0.1", "unit": "µM"}]}
{"compound": "CCCC(N)CNc1cc(Nc2cccc(C)n2)c(C(N)=O)cn1", "note": "(racemic) [Example 2.11, 6-[(2-aminopentyl)amino]-4-[(6-methylpyridin-2-yl)amino]pyridine-3-carboxamide]", "values": [{"measurement": "IC50", "setting": "[1]; read-out: rhSYK Activity", "value": "0.01 to 0.1", "unit": "µM"}]}
{"compound": "Cc1cc(C)nc(Nc2cc(NC(C)CN)ncc2C(N)=O)c1", "note": "(racemic) [Example 2.10, 6-[(2-amino-1-methylethyl)amino]-4-[(4,6-dimethylpyridin-2-yl)amino]pyridine-3-carboxamide]", "values": [{"measurement": "IC50", "setting": "[1]; read-out: IC50", "value": 3.2, "unit": "µM"}, {"measurement": "IC50", "setting": "[1]; read-out: rhSYK Activity", "value": "1 to 10", "unit": "µM"}]}
{"compound": "Cc1cccc(Nc2cc(N[C@@H]3CCCC[C@H]3N)ncc2C(N)=O)n1", "note": "(relative stereo) [Example 2.8, rel-6-{[(1R,2R)-2-aminocyclohexyl]amino}-4-[(6-methylpyridin-2-yl)amino]pyridine-3-carboxamide]", "values": [{"measurement": "IC50", "setting": "[1]; read-out: rhSYK Activity", "value": "0.1 to 1", "unit": "µM"}]}
{"compound": "Cc1cccc(Nc2cc(NCC(N)C3CC3)ncc2C(N)=O)n1", "note": "(racemic) [Example 2.12, 6-[(2-amino-2-cyclopropylethyl)amino]-4-[(6-methylpyridin-2-yl)amino]pyridine-3-carboxamide]", "values": [{"measurement": "IC50", "setting": "[1]; read-out: rhSYK Activity", "value": "0.1 to 1", "unit": "µM"}]}
{"compound": "Oc1cccc(Nc2ncc(F)c(Nc3cccc(O)c3)n2)c1", "note": "[Example R112]", "values": [{"measurement": "PGD2", "setting": "[2]", "value": "statistically significant decrease"}, {"measurement": "clinical safety", "setting": "[2]", "value": "safe across a range of indicators"}, {"measurement": "efficacy versus placebo", "setting": "[3]", "value": "lack of efficacy versus placebo"}]}
